Measured values taken from the supplement of paper PMC6315032.

Key:
Experiment in all cases: apparent dissociation constant (pKDapp, Kinobeads competition, Cheng-Prusoff corrected) (-log10 M); higher = tighter binding
Details in all cases: affinity matrix / lysate: Kinobeads, mixed HEK293/K-562/placenta lysate
[1] = molecular target: ACVR1 (UniProt Q04771)
[2] = molecular target: CAMKK1 (UniProt Q8N5S9)
[3] = molecular target: CDC2L5 (UniProt Q14004)
[4] = molecular target: CDC42BPG (UniProt Q6DT37)
[5] = molecular target: CDK8 (UniProt P49336)
[6] = molecular target: EPHA6 (UniProt Q9UF33)
[7] = molecular target: FGR (UniProt P09769)
[8] = molecular target: FLT4 (UniProt P35916)
[9] = molecular target: GSK3B (UniProt P49841)
[10] = molecular target: ICK (UniProt Q9UPZ9)
[11] = molecular target: IKBKE (UniProt Q14164)
[12] = molecular target: JAK2 (UniProt O60674)
[13] = molecular target: LATS2 (UniProt Q9NRM7)
[14] = molecular target: LRRK2 (UniProt Q5S007)
[15] = molecular target: MAP2K3 (UniProt P46734)
[16] = molecular target: MAP4K2 (UniProt Q12851)
[17] = molecular target: MARK3 (UniProt P27448)
[18] = molecular target: MELK (UniProt Q14680)
[19] = molecular target: MINK1 (UniProt Q8N4C8)
[20] = molecular target: NEK3 (UniProt P51956)
[21] = molecular target: NLK (UniProt Q9UBE8)
[22] = molecular target: NUAK1 (UniProt O60285)
[23] = molecular target: PCTK3 (UniProt Q07002)
[24] = molecular target: PDGFRA (UniProt P16234)
[25] = molecular target: PDGFRB (UniProt P09619)
[26] = molecular target: PRKCA (UniProt P17252)
[27] = molecular target: RPS6KA5 (UniProt O75582)
[28] = molecular target: STK17B (UniProt O94768)
[29] = molecular target: STK4 (UniProt Q13043)
[30] = molecular target: TEK (UniProt Q02763)
[31] = molecular target: TESK1 (UniProt Q15569)
[32] = molecular target: TNK1 (UniProt Q13470)
[33] = molecular target: ZAK (UniProt Q9NYL2)

Measured: apparent dissociation constant (-log10 M)

Sequence of TNK1 (Q13470 whole entry): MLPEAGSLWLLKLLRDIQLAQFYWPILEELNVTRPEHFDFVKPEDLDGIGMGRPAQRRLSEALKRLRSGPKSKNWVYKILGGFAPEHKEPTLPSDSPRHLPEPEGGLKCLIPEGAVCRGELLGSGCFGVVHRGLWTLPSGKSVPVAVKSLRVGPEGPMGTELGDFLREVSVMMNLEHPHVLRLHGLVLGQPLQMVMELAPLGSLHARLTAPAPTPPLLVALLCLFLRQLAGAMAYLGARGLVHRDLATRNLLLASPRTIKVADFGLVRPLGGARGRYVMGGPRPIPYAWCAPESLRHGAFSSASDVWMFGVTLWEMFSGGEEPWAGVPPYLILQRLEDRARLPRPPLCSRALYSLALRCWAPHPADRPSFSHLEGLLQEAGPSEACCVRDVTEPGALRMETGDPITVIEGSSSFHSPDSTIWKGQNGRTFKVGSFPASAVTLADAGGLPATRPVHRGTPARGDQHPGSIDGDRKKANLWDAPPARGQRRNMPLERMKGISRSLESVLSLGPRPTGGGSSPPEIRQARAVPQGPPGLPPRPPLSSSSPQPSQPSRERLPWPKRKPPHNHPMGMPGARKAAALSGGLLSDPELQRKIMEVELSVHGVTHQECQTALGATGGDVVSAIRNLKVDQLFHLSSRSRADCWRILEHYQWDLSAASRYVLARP
Sequence of PDGFRB (P09619 whole entry): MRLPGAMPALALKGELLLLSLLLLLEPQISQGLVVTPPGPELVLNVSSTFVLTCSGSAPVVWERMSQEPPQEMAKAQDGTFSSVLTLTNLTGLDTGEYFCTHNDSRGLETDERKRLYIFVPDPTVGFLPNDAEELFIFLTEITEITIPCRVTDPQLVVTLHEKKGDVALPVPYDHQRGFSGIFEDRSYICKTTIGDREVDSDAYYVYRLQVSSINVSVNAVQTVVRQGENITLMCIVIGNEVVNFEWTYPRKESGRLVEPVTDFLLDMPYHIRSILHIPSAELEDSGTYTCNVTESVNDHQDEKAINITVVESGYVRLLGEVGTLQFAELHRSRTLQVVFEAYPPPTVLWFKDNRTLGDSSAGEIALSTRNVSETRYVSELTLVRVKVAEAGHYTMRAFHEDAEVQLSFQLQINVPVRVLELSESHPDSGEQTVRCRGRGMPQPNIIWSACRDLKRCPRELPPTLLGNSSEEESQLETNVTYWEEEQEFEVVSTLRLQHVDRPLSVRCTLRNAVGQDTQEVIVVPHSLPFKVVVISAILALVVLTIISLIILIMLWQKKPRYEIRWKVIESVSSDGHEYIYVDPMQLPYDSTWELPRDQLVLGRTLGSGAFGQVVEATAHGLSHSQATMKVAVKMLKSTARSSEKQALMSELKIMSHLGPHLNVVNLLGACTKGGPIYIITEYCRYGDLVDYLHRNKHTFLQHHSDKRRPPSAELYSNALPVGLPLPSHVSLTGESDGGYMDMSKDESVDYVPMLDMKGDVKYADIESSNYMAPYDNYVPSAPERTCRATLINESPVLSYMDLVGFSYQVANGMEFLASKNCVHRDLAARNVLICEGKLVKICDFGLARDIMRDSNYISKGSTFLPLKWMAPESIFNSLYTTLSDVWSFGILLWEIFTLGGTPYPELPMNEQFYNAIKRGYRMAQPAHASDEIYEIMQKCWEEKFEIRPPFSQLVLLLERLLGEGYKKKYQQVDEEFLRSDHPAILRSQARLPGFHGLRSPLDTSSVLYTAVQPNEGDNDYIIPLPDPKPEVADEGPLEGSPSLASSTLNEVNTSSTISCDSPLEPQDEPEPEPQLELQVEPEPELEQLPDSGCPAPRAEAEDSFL
Sequence of GSK3B (P49841 whole entry, looked up): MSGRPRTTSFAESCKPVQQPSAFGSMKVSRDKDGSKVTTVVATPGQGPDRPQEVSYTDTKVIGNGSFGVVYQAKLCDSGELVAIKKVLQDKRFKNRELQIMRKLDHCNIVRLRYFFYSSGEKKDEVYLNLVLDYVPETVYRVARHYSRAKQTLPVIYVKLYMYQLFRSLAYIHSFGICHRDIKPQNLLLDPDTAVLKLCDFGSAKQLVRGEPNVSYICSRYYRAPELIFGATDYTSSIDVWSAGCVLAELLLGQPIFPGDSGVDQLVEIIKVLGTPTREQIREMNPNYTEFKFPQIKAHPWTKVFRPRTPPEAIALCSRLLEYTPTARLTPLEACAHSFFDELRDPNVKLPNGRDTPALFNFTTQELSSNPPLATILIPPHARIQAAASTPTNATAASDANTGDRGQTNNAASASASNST
Sequence of CDK8 (P49336 whole entry): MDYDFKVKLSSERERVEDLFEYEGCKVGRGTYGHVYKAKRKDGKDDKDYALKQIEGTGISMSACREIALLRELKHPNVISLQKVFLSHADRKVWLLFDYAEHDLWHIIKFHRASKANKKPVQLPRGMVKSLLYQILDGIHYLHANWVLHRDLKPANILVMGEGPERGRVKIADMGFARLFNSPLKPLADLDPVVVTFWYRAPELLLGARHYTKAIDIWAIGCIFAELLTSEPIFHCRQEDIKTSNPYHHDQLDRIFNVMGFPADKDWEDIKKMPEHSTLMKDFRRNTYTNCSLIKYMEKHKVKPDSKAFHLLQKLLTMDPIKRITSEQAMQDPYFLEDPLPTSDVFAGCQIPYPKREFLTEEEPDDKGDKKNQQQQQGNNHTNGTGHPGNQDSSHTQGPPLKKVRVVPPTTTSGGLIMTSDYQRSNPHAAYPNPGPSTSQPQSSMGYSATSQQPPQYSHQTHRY
Sequence of RPS6KA5 (O75582 whole entry, looked up): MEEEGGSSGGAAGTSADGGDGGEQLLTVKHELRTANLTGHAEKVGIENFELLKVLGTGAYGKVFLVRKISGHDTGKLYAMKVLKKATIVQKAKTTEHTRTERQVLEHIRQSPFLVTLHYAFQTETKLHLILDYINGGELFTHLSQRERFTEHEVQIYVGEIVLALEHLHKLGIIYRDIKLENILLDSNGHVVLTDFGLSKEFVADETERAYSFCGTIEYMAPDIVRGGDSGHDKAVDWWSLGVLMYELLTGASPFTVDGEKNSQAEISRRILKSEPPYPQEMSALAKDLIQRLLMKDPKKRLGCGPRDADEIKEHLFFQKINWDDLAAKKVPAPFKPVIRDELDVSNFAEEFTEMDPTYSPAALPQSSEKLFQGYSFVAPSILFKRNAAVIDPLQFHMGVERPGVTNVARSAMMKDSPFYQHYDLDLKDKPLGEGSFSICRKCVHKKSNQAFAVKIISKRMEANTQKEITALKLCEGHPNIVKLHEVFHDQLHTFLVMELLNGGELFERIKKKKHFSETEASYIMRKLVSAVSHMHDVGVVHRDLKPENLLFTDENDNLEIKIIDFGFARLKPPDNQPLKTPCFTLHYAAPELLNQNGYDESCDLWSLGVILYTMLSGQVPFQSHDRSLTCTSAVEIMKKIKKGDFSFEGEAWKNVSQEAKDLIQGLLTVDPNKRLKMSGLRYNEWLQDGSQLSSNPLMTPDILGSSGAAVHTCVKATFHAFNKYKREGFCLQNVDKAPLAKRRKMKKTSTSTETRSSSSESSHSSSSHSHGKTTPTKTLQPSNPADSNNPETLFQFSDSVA
Sequence of MARK3 (P27448 whole entry, looked up): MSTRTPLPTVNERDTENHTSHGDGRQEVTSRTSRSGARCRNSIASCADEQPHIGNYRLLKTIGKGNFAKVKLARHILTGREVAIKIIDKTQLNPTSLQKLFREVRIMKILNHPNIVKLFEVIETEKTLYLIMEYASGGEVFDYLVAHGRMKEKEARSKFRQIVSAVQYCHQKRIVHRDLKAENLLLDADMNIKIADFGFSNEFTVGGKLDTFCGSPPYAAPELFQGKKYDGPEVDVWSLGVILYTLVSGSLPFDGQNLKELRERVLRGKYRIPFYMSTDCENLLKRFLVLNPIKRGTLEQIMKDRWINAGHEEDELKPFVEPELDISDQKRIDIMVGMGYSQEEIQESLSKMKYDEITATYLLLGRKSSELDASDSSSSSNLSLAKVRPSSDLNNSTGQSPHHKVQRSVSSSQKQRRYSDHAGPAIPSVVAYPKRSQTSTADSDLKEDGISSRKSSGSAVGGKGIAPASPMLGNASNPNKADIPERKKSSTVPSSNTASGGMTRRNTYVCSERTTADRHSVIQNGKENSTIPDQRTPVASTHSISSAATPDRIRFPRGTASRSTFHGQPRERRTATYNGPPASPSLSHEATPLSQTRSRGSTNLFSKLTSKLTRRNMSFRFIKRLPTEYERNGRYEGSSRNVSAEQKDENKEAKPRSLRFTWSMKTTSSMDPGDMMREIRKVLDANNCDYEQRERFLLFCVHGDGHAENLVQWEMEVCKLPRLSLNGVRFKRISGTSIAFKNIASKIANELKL
Sequence of MAP2K3 (P46734 whole entry): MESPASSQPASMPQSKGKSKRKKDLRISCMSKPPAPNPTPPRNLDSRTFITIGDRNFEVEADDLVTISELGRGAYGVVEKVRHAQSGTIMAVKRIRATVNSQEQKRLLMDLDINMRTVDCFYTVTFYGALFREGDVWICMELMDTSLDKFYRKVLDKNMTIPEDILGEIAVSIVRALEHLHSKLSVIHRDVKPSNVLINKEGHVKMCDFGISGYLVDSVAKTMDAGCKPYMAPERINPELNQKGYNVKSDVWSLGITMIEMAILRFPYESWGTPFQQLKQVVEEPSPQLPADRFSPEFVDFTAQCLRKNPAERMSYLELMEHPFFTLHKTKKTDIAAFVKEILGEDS
Sequence of STK4 (Q13043 whole entry): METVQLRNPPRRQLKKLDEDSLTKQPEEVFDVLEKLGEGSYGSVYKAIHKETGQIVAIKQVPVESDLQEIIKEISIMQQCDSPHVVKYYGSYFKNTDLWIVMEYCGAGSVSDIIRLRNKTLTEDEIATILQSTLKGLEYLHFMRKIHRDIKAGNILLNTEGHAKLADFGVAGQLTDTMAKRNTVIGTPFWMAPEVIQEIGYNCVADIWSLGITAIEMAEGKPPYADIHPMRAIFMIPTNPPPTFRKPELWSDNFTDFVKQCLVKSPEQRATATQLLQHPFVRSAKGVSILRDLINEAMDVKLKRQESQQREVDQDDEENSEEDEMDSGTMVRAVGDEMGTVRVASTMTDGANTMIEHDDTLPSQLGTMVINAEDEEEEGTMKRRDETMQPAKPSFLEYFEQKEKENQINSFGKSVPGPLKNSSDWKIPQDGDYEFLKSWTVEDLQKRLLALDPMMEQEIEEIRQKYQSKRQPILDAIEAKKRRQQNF

COc1ccc(-c2ccc3c(N4CCOC[C@@H]4C)nc(N4CCOC[C@@H]4C)nc3n2)cc1CO [AZD8055]
< 6: all assays above

CCNC(=O)Nc1ccc(-c2nc(N3CCOC[C@@H]3C)c3c(n2)C(C)(C)S(=O)(=O)C3)cc1 [CZ415]
< 6: all assays above
